Experimental data as given in patent publication US4616081A, “Cephalosporin compounds” (Asahi Kasei Kogyo Kabushiki Kaisha, priority 1982, dated 1986).

Legend:
Staph. aureus MS27 = assay: MIC against Staph. aureus MS27; assay type: cell-based; conditions: Bacterial count inoculated 10^6 cells/ml
Procedure: (§1) Nextly, antibacterial activity or minimum inhibitory concentration (MIC) was measured and the results are shown in Table 1 with respect to the following representative compounds according to the present invention. [drawing 19]
(§2) With respect to Compound Nos. 14 and 15, antibacterial activity or minimum inhibitory concentration (MIC) was measured and the results are shown in Table 2. [drawing 21]

Sarcina lutea ATCC 9341 = assay: MIC against Sarcina lutea ATCC 9341; assay type: cell-based; conditions: Bacterial count inoculated 10^6 cells/ml
Procedure: as §1, §2

Ps. aeruginosa 0812 M2 = assay: MIC against Ps. aeruginosa 0812 M2; assay type: cell-based; conditions: Bacterial count inoculated 10^6 cells/ml
Procedure: as §1, §2

Strept. pyogenes NY5 = assay: MIC against Strept. pyogenes NY5; assay type: cell-based; conditions: Bacterial count inoculated 10^6 cells/ml
Procedure: as §1, §2

Shigella sonnei E33 = assay: MIC against Shigella sonnei E33; assay type: cell-based; conditions: Bacterial count inoculated 10^6 cells/ml
Procedure: as §1, §2

Proteus rettgeri ACR = assay: MIC against Proteus rettgeri ACR; assay type: cell-based; conditions: Bacterial count inoculated 10^6 cells/ml
Procedure: as §1, §2

[1] = test system: Citrobact. freundii GN346; assay: MIC against Citrobact. freundii GN346; assay type: cell-based; conditions: Bacterial count inoculated 10^6 cells/ml
Procedure: as §1, §2

[2] = test system: Klebs. pneumoniae ATCC 10031; assay: MIC against Klebs. pneumoniae ATCC 10031; assay type: cell-based; conditions: Bacterial count inoculated 10^6 cells/ml
Procedure: as §1, §2

E. coli NIHJ-JC2 = assay: MIC against E. coli NIHJ-JC2; assay type: cell-based; conditions: Bacterial count inoculated 10^6 cells/ml
Procedure: as §1, §2

Proteus morganii 0239 = assay: MIC against Proteus morganii 0239; assay type: cell-based; conditions: Bacterial count inoculated 10^6 cells/ml
Procedure: as §1, §2

[3] = test system: Enterobact. cloacae GN336; assay: MIC against Enterobact. cloacae GN336; assay type: cell-based; conditions: Bacterial count inoculated 10^6 cells/ml
Procedure: as §1, §2

Staph. aureus ATCC 6538P = assay: MIC against Staph. aureus ATCC 6538P; assay type: cell-based; conditions: Bacterial count inoculated 10^6 cells/ml
Procedure: as §1, §2

[4] = test system: Enterobact. aerogenes 0655; assay: MIC against Enterobact. aerogenes 0655; assay type: cell-based; conditions: Bacterial count inoculated 10^6 cells/ml
Procedure: as §1, §2

E. coli W3630 = assay: MIC against E. coli W3630; assay type: cell-based; conditions: Bacterial count inoculated 10^6 cells/ml
Procedure: as §1, §2

Bac. subtilis ATCC 6633 = assay: MIC against Bac. subtilis ATCC 6633; assay type: cell-based; conditions: Bacterial count inoculated 10^6 cells/ml
Procedure: as §2

E. coli W3630 PS3 = assay: MIC against E. coli W3630 PS3; assay type: cell-based; conditions: Bacterial count inoculated 10^6 cells/ml
Procedure: as §1, §2

[5] = test system: Salm. enteritidis Gaertner; assay: MIC against Salm. enteritidis Gaertner; assay type: cell-based; conditions: Bacterial count inoculated 10^6 cells/ml
Procedure: as §1, §2

Serratia marcescens = assay: MIC against Serratia marcescens; assay type: cell-based; conditions: Bacterial count inoculated 10^6 cells/ml
Procedure: as §1, §2

[6] = maximum blood concentration after oral administration in Wister rats (HPLC and Bioassay); assay type: in vivo; conditions: Wister rat, fasted, 30 mg/kg, solution of pH 7 in phosphate buffer
Procedure: Further in the compounds according to the present invention, intestinal absorption is improved by the introduction of amino acids at the 3-position thereof. For example, comparison of the maximum blood concentration of the Compound Nos. 2, 3, 7, 8, 14, 15 and 23 with that of Comparative Compound (b) establishes and affirms the effects, as is shown below. In the above test, the method for measurement of blood concentration was as follows. Rate: Wister rat weighing 170 to 220 g Dose: 30 mg/kg Wister rats were fasted from the previous night but freely accessible to water. Each of drugs was administered as a solution of pH 7 in a phosphate buffer, when orally administered. The blood concentration was measured in accordance with the High Performance Liquid Chromatography (HPLC) method and the Bioassay method by using E. coli as bacteria for test.

[7] = acute toxicity test using mice, intraperitoneal; conditions: mouse, in vivo, ip
From the text: In addition to excellent antibacterial activity, the compounds of the present invention are low in toxicity. For example, in acute toxicity test using mice, the following results were obtained with Compound Nos. 2, 3, 7, 14, 15 and 23 which were intraperitoneally administered.

Compound | Minimum Inhibitory Concentration (MIC) (Staph. aureus MS27) | Minimum Inhibitory Concentration (MIC) (Sarcina lutea ATCC 9341) | Minimum Inhibitory Concentration (MIC) (Ps. aeruginosa 0812 M2) | Minimum Inhibitory Concentration (MIC) (Strept. pyogenes NY5) | Minimum Inhibitory Concentration (MIC) (Shigella sonnei E33) | Minimum Inhibitory Concentration (MIC) (Proteus rettgeri ACR) | Minimum Inhibitory Concentration (MIC) [1] | Minimum Inhibitory Concentration (MIC) [2] | Minimum Inhibitory Concentration (MIC) (E. coli NIHJ-JC2) | Minimum Inhibitory Concentration (MIC) (Proteus morganii 0239) | Minimum Inhibitory Concentration (MIC) [3] | Minimum Inhibitory Concentration (MIC) (Staph. aureus ATCC 6538P) | Minimum Inhibitory Concentration (MIC) [4] | Minimum Inhibitory Concentration (MIC) (E. coli W3630) | Minimum Inhibitory Concentration (MIC) (Bac. subtilis ATCC 6633) | Minimum Inhibitory Concentration (MIC) (E. coli W3630 PS3) | Minimum Inhibitory Concentration (MIC) [5] | Minimum Inhibitory Concentration (MIC) (Serratia marcescens) | Cmax [6] | LD50 [7]
Cc1nnc(SCC2=C(C(=O)O)N3C(=O)C(NC(=O)Cn4cnnn4)C3SC2)s1 (stereo not shown) [Comparative Compound (a), reference compound] | 1.6 | 0.8 | > 100 | 0.2 | 1.6 | > 100 | > 100 | 3.1 | 1.6 | > 100 | > 100 | 0.4 | > 100 | 3.1 | 0.2 | 3.1 | 3.1 | > 100 |  | 
CO/N=C(\C(=O)N[C@@H]1C(=O)N2C(C(=O)O)=C(C[n+]3ccc(CC(N)C(=O)O)cc3)CS[C@H]12)c1csc(N)n1 (stereo partly drawn) [Compound No. 14, 7β-[(Z)-2-(2-amino-4-thiazolyl)-2-(methoxyimino)acetamido]-3-[4-(2-amino-2-carboxy)ethyl-1-pyridiummethyl]-3-cephem-4-carboxylic acid] | 3.1 | 0.8 | 3.1 | 0.1 | ≤ 0.1 | 0.2 | 12.5 | ≤ 0.1 | 0.1 | 0.2 | 0.2 | 6.3 | 0.2 | ≤ 0.1 | ≤ 0.1 | ≤ 0.1 | ≤ 0.1 | 0.1 | 9 µg/mL | 9000 to 10000 mg/kg
CO/N=C(\C(=O)N[C@@H]1C(=O)N2C(C(=O)O)=C(C[n+]3cccc(CC(N)C(=O)O)c3)CS[C@H]12)c1csc(N)n1 (stereo partly shown) [Compound No. 15] | 6.3 | ≤ 0.1 | 6.3 | ≤ 0.1 | ≤ 0.1 | 0.2 | 12.5 | 0.1 | 0.2 | 0.2 | 0.2 | 3.1 | 0.2 | 0.2 | 1.6 | 0.1 | ≤ 0.1 | 0.4 | 12 µg/mL | 10000 to 12000 mg/kg
